For 33 compounds, JAK2/JAK1 results are on record in US9908895B2, “Tricyclic fused thiophene derivatives as JAK inhibitors” (Incyte Corporation, priority 2012, dated 2018).

Each structure is given as a SMILES string.

The test system of the assay is human JAK1. Put plainly: In vitro JAK kinase assay (HTRF), JAK1. Format: biochemical. The conditions noted are these: ratio of JAK2 IC50 to JAK1 IC50 at 1 mM ATP. How it is done: Compounds herein were tested for inhibitory activity of JAK targets according to the following in vitro assay described in Park et al., Analytical Biochemistry 1999, 269, 94-104. The catalytic domains of human JAK1 (a.a. 837-1142), JAK2 (a.a. 828-1132) and JAK3 (a.a. 781-1124) were expressed using baculovirus in insect cells and purified. The catalytic activity of JAK1, JAK2 or JAK3 was assayed by measuring the phosphorylation of a biotinylated peptide. The phosphorylated peptide was detected by homogenous time resolved fluorescence (HTRF). IC50s of compounds were measured for each kinase in the 40 μL reactions that contain the enzyme, ATP and 500 nM peptide in 50 mM Tris (pH 7.8) buffer with 100 mM NaCl, 5 mM DTT, and 0.1 mg/mL (0.01%) BSA. For the 1 mM IC50 measurements, ATP concentration in the reactions was 1 mM. Reactions were carried out at room temperature for 1 hour and then stopped with 20 μL 45 mM EDTA, 300 nM SA-APC, 6 nM Eu-Py20 in assay buffer (Perkin Elmer, Boston, Mass.). Binding to the Europium labeled antibody took place for 40 minutes and HTRF signal was measured on a PHERA star plate reader (BMG, Cary, N.C.). The Example compounds were each tested in the Example A assay (see Table 1 for data for the compounds of the examples as tested by the assay of Example A at 1 mM ATP).

Turning to `CCc1nc2cnc3ccsc3c2n1[C@@H]1CC[C@@H](CC#N)[C@@H](O)C1` (mixture of isomers) [Example 35], the JAK2/JAK1 was above 10.
The value for `C[C@@H](O)c1nc2cnc3ccsc3c2n1C1CCC(O)(CC#N)CC1` (single isomer, unassigned) [24 (first peak)] was above 10.
Regarding `C[C@@H](O)c1nc2cnc3ccsc3c2n1C1CCC(NCCC#N)CC1` (single isomer, unassigned) [30 (first peak)], the JAK2/JAK1 is on record as above 2.
On to `C[C@@H](O)c1nc2cnc3ccsc3c2n1C1CCC(NCCC#N)CC1` (single isomer, unassigned) [30 (second peak)], for which the JAK2/JAK1 was above 10.
The value for `N#CCC1CCC(CO)(n2cnc3cnc4ccsc4c32)CC1` (single isomer, unassigned) [72 (second peak), [4-(Hydroxymethyl)-4-(1H-imidazo[4,5-d]thieno[3,2-b]pyridin-1-yl)cyclohexyl]acetonitrile] was above 5; that for `C[C@@H](O)c1nc2cnc3ccsc3c2n1[C@H]1CCCOC1` [Example 1, (1R)-1-{1-[(3S)-Tetrahydro-2H-pyran-3-yl]-1H-imidazo[4,5-d]thieno[3,2-b]pyridin-2-yl}ethanol] was above 3; that for `C[C@@H](O)c1nc2cnc3ccsc3c2n1[C@H]1CC[C@H](CC#N)CC1` [Example 2, (trans-4-{2-[(1R)-1-Hydroxyethyl]-1H-imidazo[4,5-d]thieno[3,2-b]pyridin-1-yl}cyclohexyl)acetonitrile] was above 10.
For the compound `C[C@@H](O)c1nc2cnc3ccsc3c2n1[C@H]1CC[C@H](O)CC1` [Example 3, trans-4-{2-[(1R)-1-Hydroxyethyl]-1H-imidazo[4,5-d]thieno[3,2-b]pyridin-1-yl}cyclohexanol], the JAK2/JAK1 is listed as above 10.
Consider `C[C@@H](O)c1nc2cnc3ccsc3c2n1[C@H]1CC[C@H](NCC(F)(F)F)CC1` [Example 4, (1R)-1-(1-{trans-4-[(2,2,2-Trifluoroethyl)amino]cyclohexyl}-1H-imidazo[4,5-d]thieno[3,2-b]pyridin-2-yl)ethanol], for which the JAK2/JAK1 was above 10.
Turning to `C[C@@H](O)c1nc2cnc3ccsc3c2n1[C@H]1CC[C@H](CCS(C)(=O)=O)CC1` [Example 5, (1R)-1-(1-{trans-4-[2-(Methylsulfonyl)ethyl]cyclohexyl}-1H-imidazo[4,5-d]thieno[3,2-b]pyridin-2-yl)ethanol], the JAK2/JAK1 is reported as above 10.
As for `C[C@@H](O)c1nc2cnc3ccsc3c2n1[C@H]1CC[C@@H](n2cncn2)CC1` [Example 6, (1R)-1-{1-[cis-4-(1H-1,2,4-Triazol-1-yl)cyclohexyl]-1H-imidazo[4,5-d]thieno[3,2-b]pyridin-2-yl}ethanol], the JAK2/JAK1 is given as above 6.
In the case of `C[C@@H](O)c1nc2cnc3ccsc3c2n1[C@H]1CC[C@@H](C#N)CC1` [Example 7, cis-4-{2-[(1R)-1-Hydroxyethyl]-1H-imidazo[4,5-d]thieno[3,2-b]pyridin-1-yl}cyclohexanecarbonitrile], the JAK2/JAK1 is above 10.
As to `C[C@@H](O)c1nc2cnc3ccsc3c2n1[C@H]1CC[C@H](CCC#N)CC1` [Example 8, 3-(trans-4-{2-[(1R)-1-Hydroxyethyl]-1H-imidazo[4,5-d]thieno[3,2-b]pyridin-1-yl}cyclohexyl)propanenitrile], the JAK2/JAK1 is recorded as above 10.
Take `C[C@@H](O)c1nc2cnc3ccsc3c2n1[C@H]1CC[C@H](CC#N)CC1.Cl` [Example 10, (trans-4-{2-[(1R)-1-Hydroxyethyl]-1H-imidazo[4,5-d]thieno[3,2-b]pyridin-1-yl}cyclohexyl)acetonitrile HCl salt]: the JAK2/JAK1 is above 10.
The result for `C[C@@H](O)c1nc2cnc3ccsc3c2n1[C@H]1CC[C@H](CO)CC1` [Example 11, (1R)-1-{1-[trans-4-(Hydroxymethyl)cyclohexyl]-1H-imidazo[4,5-d]thieno[3,2-b]pyridin-2-yl}ethanol] reads above 10.
For the compound `C[C@@H](O)c1nc2cnc3ccsc3c2n1[C@H]1CC[C@H](CF)CC1` [Example 12, (1R)-1-{1-[trans-4-(Fluoromethyl)cyclohexyl]-1H-imidazo[4,5-d]thieno[3,2-b]pyridin-2-yl}ethanol], the JAK2/JAK1 is above 10.
`C[C@@H](O)c1nc2cnc3ccsc3c2n1C1CCCCC1` [Example 13, (1R)-1-(1-Cyclohexyl-1H-imidazo[4,5-d]thieno[3,2-b]pyridin-2-yl)ethanol]: the JAK2/JAK1 is listed as above 10.
The result for `CNS(=O)(=O)C[C@H]1CC[C@H](n2c([C@@H](C)O)nc3cnc4ccsc4c32)CC1` [Example 14, 1-(trans-4-{2-[(1R)-1-hydroxyethyl]-1H-imidazo[4,5-d]thieno[3,2-b]pyridin-1-yl}cyclohexyl)-N-methylmethanesulfonamide] reads above 5; that for `C[C@@H](O)c1nc2cnc3ccsc3c2n1C1CCN(CC(F)(F)F)CC1` [Example 15, (1R)-1-{1-[1-(2,2,2-Trifluoroethyl)piperidin-4-yl]-1H-imidazo[4,5-d]thieno[3,2-b]pyridin-2-yl}ethanol], above 9; that for `C[C@@H](O)c1nc2cnc3ccsc3c2n1C1CCN(CCC#N)CC1` [Example 16, 3-(4-{2-[(1R)-1-Hydroxyethyl]-1H-imidazo[4,5-d]thieno[3,2-b]pyridin-1-yl}piperidin-1-yl)propanenitrile], above 10.
The result for `N#CC[C@H]1CC[C@H](n2c(CO)nc3cnc4ccsc4c32)CC1` [Example 17, {trans-4-[2-(Hydroxymethyl)-1H-imidazo[4,5-d]thieno[3,2-b]pyridin-1-yl]cyclohexyl}acetonitrile] reads above 10.
Take `CS(=O)(=O)NCc1nc2cnc3ccsc3c2n1[C@H]1CC[C@H](CC#N)CC1` [Example 18, N-({1-[trans-4-(Cyanomethyl)cyclohexyl]-1H-imidazo[4,5-d]thieno[3,2-b]pyridin-2-yl}methyl)methanesulfonamide]: the JAK2/JAK1 is given as above 10.
In the case of `C[C@@H](O)c1nc2cnc3ccsc3c2n1[C@H]1CCC(CO)OC1` (stereo partly drawn) [Example 19, (1R)-1-{1-[(3S)-6-(Hydroxymethyl)tetrahydro-2H-pyran-3-yl]-1H-imidazo[4,5-d]thieno[3,2-b]pyridin-2-yl}ethanol], the JAK2/JAK1 was above 10.
In the case of `C[C@@H](O)c1nc2cnc3ccsc3c2n1[C@H]1CC[C@H](CC#N)OC1` [Example 20, ((2R,5S)-5-{2-[(1R)-1-Hydroxyethyl]-1H-imidazo[4,5-d]thieno[3,2-b]pyridin-1-yl}tetrahydro-2H-pyran-2-yl)acetonitrile], the JAK2/JAK1 was above 10.
For the compound `C[C@@H](O)c1nc2cnc3ccsc3c2n1[C@H]1CC[C@@H](CC#N)OC1` [Example 21, ((2S,5S)-5-{2-[(1R)-1-Hydroxyethyl]-1H-imidazo[4,5-d]thieno[3,2-b]pyridin-1-yl}tetrahydro-2H-pyran-2-yl)acetonitrile], the JAK2/JAK1 is given as above 10.
For `CS(=O)(=O)NCc1nc2cnc3ccsc3c2n1[C@H]1CC2CCC1C2` (stereo partly drawn) [Example 22, N-((1-((2S)-Bicyclo[2.2.1]heptan-2-yl)-1H-imidazo[4,5-d]thieno[3,2-b]pyridin-2-yl)methyl)methanesulfonamide], the JAK2/JAK1 was above 4.
`N#CC[C@H]1CC[C@H](n2/c(=N/C#N)[nH]c3cnc4ccsc4c32)CC1.O=C(O)C(F)(F)F` [Example 25, {(2E)-1-[trans-4-(Cyanomethyl)cyclohexyl]-1,3-dihydro-2H-imidazo[4,5-d]thieno[3,2-b]pyridin-2-ylidene}cyanamide trifluoroacetate]: the JAK2/JAK1 is given as above 6.
The result for `N#CC[C@H]1CC[C@H](n2c(C3CC3)nc3cnc4ccsc4c32)CC1` [Example 26, [trans-4-(2-Cyclopropyl-1H-imidazo[4,5-d]thieno[3,2-b]pyridin-1-yl)cyclohexyl]acetonitrile] reads above 10.
Regarding `CC(C)c1nc2cnc3ccsc3c2n1[C@H]1CC[C@H](CC#N)CC1` [Example 27, [trans-4-(2-Isopropyl-1H-imidazo[4,5-d]thieno[3,2-b]pyridin-1-yl)cyclohexyl]acetonitrile], the JAK2/JAK1 is above 10.
Consider `N#CC[C@H]1CC[C@H](n2c(C3CNC3)nc3cnc4ccsc4c32)CC1` [Example 28, [trans-4-(2-Azetidin-3-yl-1H-imidazo[4,5-d]thieno[3,2-b]pyridin-1-yl)cyclohexyl]acetonitrile], for which the JAK2/JAK1 is reported as above 7.
For the compound `CN1CC(c2nc3cnc4ccsc4c3n2[C@H]2CC[C@H](CC#N)CC2)C1` [Example 29, {trans-4-[2-(1-Methylazetidin-3-yl)-1H-imidazo[4,5-d]thieno[3,2-b]pyridin-1-yl]cyclohexyl}acetonitrile], the JAK2/JAK1 is on record as above 9.
`C[C@@H](O)c1nc2cnc3ccsc3c2n1C1CCCC(CCC#N)C1` (stereo partly drawn) [Example 32, 3-(3-{2-[(1R)-1-Hydroxyethyl]-1H-imidazo[4,5-d]thieno[3,2-b]pyridin-1-yl}cyclohexyl)propanenitrile]: the JAK2/JAK1 is on record as above 10.
With `Cc1nc2cnc3ccsc3n2c1-c1ccc(CC#N)cc1` [Example 33, [4-(7-Methylimidazo[1,2-a]thieno[3,2-e]pyrazin-8-yl)phenyl]acetonitrile], the JAK2/JAK1 is above 7.
